Laboratory results as given in patent US8778923B2, “GLP-1 receptor modulators” (Receptos, Inc., priority 2011, dated 2014).

Target: T1, GLP-1R (Homo sapiens, UniProt P43220)
T1 construct: host or cells: CRE-bla CHO-K1
Assay: EC20 GLP-1(9-36) PAM cAMP assay: dose response of compound in the presence of fixed concentration of GLP-1(9-36)
Format: cell-based
Settings: GLP-1R CRE-bla CHO-K1 cells, compound dose response in presence of fixed concentration of GLP-1(9-36)
Procedure: EC20 GLP-1(9-36) PAM cAMP Assay: Dose Response of Compound in the Presence of Fixed Concentration of GLP-1 (9-36).
GLP-1R CRE-bla CHO-K1 cells cultured in growth medium (DMEM-High glucose, 10% dialyzed FBS, 0.1 mM NEAA, 25 mM Hepes, 100 U/mL penicillin/100 μg/mL streptomycin, 5 μg/mL Blasticidin, 600 μg/mL Hygromycin) were tryspsinized and plated in suspension into 384 well white flat bottom plates at 5000 cells/well in 12 μL assay buffer (Hanks Balanced Salt solution, 10 mM Hepes, 0.1% BSA, pH 7.4). A 5× compound dose response curve (12-point) was generated in assay buffer containing 1.5 mM IBMX, 12.5% DMSO. GLP-1(9-36) was diluted to 4.2 μM in assay buffer containing 1.5 mM IBMX and 12.5% DMSO. The 5× compound dose response was added (3 μL), followed by 0.5 μL of GLP-1(9-36) and cells were incubated for 30 min at 37° C. Direct detection of cAMP was carried out using DiscoveRx HitHunter cAMP kit according to manufacturer's instructions and luminescence was read using a SpectraMax M5 plate reader. Luminescence was converted to total cAMP using a cAMP standard curve and data was analyzed by non-linear regression to determine the EC50 and Emax.
GLP-1(7-36): […]-NH2. GLP-1(9-36): […]-NH2. GLP-1(7-36) was purchased from GenScript. GLP-1(9-36) was purchased from Biopeptide Co., Inc.

T1 sequence (P43220 24-463): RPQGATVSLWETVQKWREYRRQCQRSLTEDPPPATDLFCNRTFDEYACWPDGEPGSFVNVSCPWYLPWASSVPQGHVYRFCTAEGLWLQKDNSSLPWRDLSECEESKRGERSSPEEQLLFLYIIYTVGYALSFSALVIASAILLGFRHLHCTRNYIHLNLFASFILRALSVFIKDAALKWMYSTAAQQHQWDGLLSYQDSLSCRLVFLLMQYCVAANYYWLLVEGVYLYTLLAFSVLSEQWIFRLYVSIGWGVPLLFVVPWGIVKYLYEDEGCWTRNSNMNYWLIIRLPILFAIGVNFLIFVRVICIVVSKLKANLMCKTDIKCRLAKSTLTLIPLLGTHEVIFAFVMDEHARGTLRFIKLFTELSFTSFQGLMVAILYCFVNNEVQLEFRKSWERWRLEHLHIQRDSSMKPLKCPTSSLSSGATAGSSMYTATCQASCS
T1 sequence (P01275 100-127 partner limits assumed): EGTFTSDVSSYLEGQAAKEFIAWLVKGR

Row | EC50 [nM] | Compound
1 | 800 to 2500 | CCCCCCCOc1ccc(-c2cnc(-c3ccc(C[C@H](NC(=O)c4ccc(C(C)C)cc4)C(=O)N[C@H](CCCCN)C(=O)O)cc3)nc2)cc1 [Compound 314]
2 | 800 to 2500 | CCCCCCCOc1ccc(-c2cnc(-c3ccc(C[C@H](NC(=O)c4ccc(C(C)(C)C)s4)C(=O)N4CCNC(C(=O)O)C4)cc3)nc2)cc1 (stereo partly shown) [Compound 339]
3 | 5000 to 10000 | CC1CCN(c2ccc(-c3nc(-c4ccc(C[C@H](NC(=O)c5ccc(C(C)(C)C)cc5)C(=O)O)cc4)no3)cc2)CC1 [Compound 6]
4 | 800 to 2500 | CCCCCCCOc1ccc(-c2cnc(-c3ccc(C[C@H](NC(=O)c4ccc(C(C)(C)C)cc4)C(=O)N(C)CC(=O)O)cc3)nc2)cc1 [Compound 304]
5 | 800 to 2500 | CCCCCCCOc1ccc(-c2nc(-c3ccc(CC[C@H](NC(=O)c4ccc(C(C)(C)C)cc4)C(=O)O)cc3)no2)cc1 [Compound 73]
6 | 800 to 2500 | CC(C)(C)c1ccc(-c2cnc(-c3ccc(C[C@H](NC(=O)c4ccc(C(C)(C)C)s4)C(=O)N[C@@H](CCC(N)=O)C(=O)O)cc3)nc2)cc1 [Compound 360]
7 | 800 to 2500 | CCCCCCCOc1ccc(-c2ncc(-c3ccc(CC(NC(=O)c4ccc(C(C)(C)C)cc4)C(=O)O)cc3)s2)cc1 (stereo not shown) [Compound 82]
8 | 2500 to 5000 | CC(C)Sc1ccc(-c2nc(-c3ccc(C[C@H](NC(=O)c4ccc(C(C)(C)C)cc4)C(=O)O)cc3)no2)cc1 [Compound 59]
9 | 800 to 2500 | CCCCCCCOc1ccc(-c2cnc(-c3ccc(C[C@H](NC(=O)c4ccc(OC)cc4F)C(=O)O)cc3)nc2)cc1 [Compound 109]
10 | 800 to 2500 | CCCCCCCOc1ccc(-c2cnc(-c3ccc(C[C@H](NC(=O)c4ccc(C(C)(C)C)s4)C(=O)N[C@H](CCC(=O)O)C(=O)O)cc3)nc2)cc1 [Compound 331]
11 | 800 to 2500 | CC(C)(C)c1ccc(-c2cnc(-c3ccc(C[C@H](NC(=O)c4ccc(S(C)(=O)=O)cc4)C(=O)O)cc3)nc2)cc1 [Compound 159]
12 | 800 to 2500 | CCCCCCOc1ccc(-c2cnc(-c3ccc(C[C@H](NC(=O)c4ccc(C(C)(C)C)cc4)C(=O)O)cc3)nc2)cn1 [Compound 257]
13 | 800 to 2500 | CCCCCCCOc1ccc(-c2cnc(-c3ccc(C[C@H](NC(=O)c4ccc(N)cc4)C(=O)O)cc3)nc2)cc1 [Compound 102]
14 | 800 to 2500 | CC(C)(C)c1ccc(C(=O)N[C@@H](Cc2ccc(-c3ncc(-c4ccc(-c5ccccc5)cc4)cn3)cc2)C(=O)O)cc1 [Compound 205]
15 | 800 to 2500 | CC(C)(C)c1ccc(-c2cnc(-c3ccc(C[C@H](NC(=O)c4ccc(OC(F)(F)F)cc4)C(=O)O)cc3)nc2)cc1 [Compound 173]
16 | 800 to 2500 | CC(C)(C)c1ccc(C(=O)N[C@@H](Cc2ccc(-c3ncc(-c4ccc5ccccc5c4)cn3)cc2)C(=O)O)s1 [Compound 245]
17 | 5000 to 10000 | Cc1ccc(-c2ccc(-c3nc(-c4ccc(C[C@H](NC(=O)c5ccc(C(C)(C)C)cc5)C(=O)O)cc4)no3)cc2)cc1 [Compound 3]
18 | 800 to 2500 | CCCCCCCOc1ccc(-c2cnc(-c3ccc(C[C@H](NC(=O)c4ccc(CC)o4)C(=O)O)cc3)nc2)cc1 [Compound 138]
19 | 2500 to 5000 | CC(C)(C)c1ccc(-c2ccc(-c3ccc(C[C@H](NC(=O)c4ccc(C(C)(C)C)s4)C(=O)O)cc3)nc2)cc1 [Compound 278]
20 | 800 to 2500 | CCCCCCCOc1ccc(-c2cnc(-c3ccc(C[C@H](NC(=O)c4ccc(C(C)(C)C)s4)C(=O)NCC4(C(=O)O)CC4)cc3)nc2)cc1 [Compound 340]
21 | 5000 to 10000 | CC(C)(C)c1ccc(C(=O)N[C@@H](Cc2ccc(-c3noc(-c4ccc(-c5ccc(Cl)cc5)cc4)n3)cc2)C(=O)O)cc1 [Compound 16]
22 | 800 to 2500 | CCCCCCCOc1ccc(-c2cnc(-c3ccc(C[C@H](NC(=O)c4ccc(C(C)(C)C)s4)C(=O)N4CCC[C@@H]4C(=O)O)cc3)nc2)cc1 [Compound 329]

Row | EC50 [nM] | Compound
23 | 800 to 2500 | CCCCCCCOc1ccc(-c2cnc(-c3ccc(C[C@H](NC(=O)Cc4cc5ccccc5s4)C(=O)O)cc3)nc2)cc1 [Compound 155]
24 | 800 to 2500 | CCCCCCCOc1ccc(N2CCCN(c3ccc(C[C@H](NC(=O)c4ccc(C(C)(C)C)cc4)C(=O)O)cc3)CC2)cc1 [Compound 268]
25 | 800 to 2500 | CCCCCCCOc1ccc(-c2cnc(-c3ccc(C[C@H](NC(=O)c4ccc(C(C)(C)C)s4)C(=O)NC(CN4CCCC4)C(=O)O)cc3)nc2)cc1 (stereo partly shown) [Compound 338]
26 | < 800 | CC(C)(C)c1ccc(-c2cnc(-c3ccc(C[C@H](NC(=O)c4ccc(C(C)(C)C)s4)C(=O)N[C@H](CO)C(=O)O)cc3)nc2)cc1 [Compound 354]
27 | 800 to 2500 | CCCCCCCOc1ccc(-c2cnc(-c3ccc(C[C@H](NC(=O)c4cc5c(s4)CCCC5)C(=O)O)cc3)nc2)cc1 [Compound 149]
28 | 800 to 2500 | Cc1ccc(-c2ccc(-c3cnc(-c4ccc(C[C@H](NC(=O)c5ccc(C(C)(C)C)s5)C(=O)O)cc4)nc3)cc2)cc1 [Compound 246]
29 | 800 to 2500 | CCCCCCCOc1ccc(-c2cnc(-c3ccc(C[C@H](NC(=O)c4ccc(OCCCC)cc4)C(=O)O)cc3)nc2)cc1 [Compound 129]
30 | 800 to 2500 | CCCCCCCOc1ccc(-c2cnc(-c3ccc(C[C@H](NC(=O)c4cccc(C(C)C)c4)C(=O)O)cc3)nc2)cc1 [Compound 95]
31 | < 800 | CCCCCCCOc1ccc(-c2cnc(-c3ccc(C[C@H](NC(=O)c4ccc(C(C)(C)C)cc4)C(=O)N[C@@H](CC(N)=O)C(=O)O)cc3)nc2)cc1 [Compound 300]
32 | 2500 to 5000 | CC(C)(C)Oc1ccc(-c2nc(-c3ccc(C[C@H](NC(=O)c4ccc(C(C)(C)C)cc4)C(=O)O)cc3)no2)cc1 [Compound 56]
33 | 5000 to 10000 | CCCCCCCOc1ccc(-c2ccc(-c3ccc(C[C@H](NC(=O)c4ccc(C(C)(C)C)s4)C(=O)O)cc3)nn2)cc1 [Compound 279]
34 | 5000 to 10000 | CC(=O)c1ccc(C(=O)N[C@@H](Cc2ccc(-c3ncc(-c4ccc(C(C)(C)C)cc4)cn3)cc2)C(=O)O)cc1 [Compound 176]
35 | < 800 | CCCCCCOc1ccc(-c2cnc(-c3ccc(C[C@H](NC(=O)c4ccc(C(C)(C)C)cc4)C(=O)NCC(=O)O)cc3)nc2)cc1 [Compound 318]
36 | 5000 to 10000 | CNc1cccc(-c2cnc(-c3ccc(C[C@H](NC(=O)c4ccc(C(C)(C)C)cc4)C(=O)O)cc3)nc2)c1 [Compound 234]
37 | 800 to 2500 | CCc1ccc(C(=O)N[C@@H](Cc2ccc(-c3ncc(-c4ccc(C(C)(C)C)cc4)cn3)cc2)C(=O)O)cc1 [Compound 160]
38 | 800 to 2500 | CCCCCCCOc1ccc(-c2cnc(-c3ccc(C[C@H](NC(=O)c4ccc(CC(C)C)cc4)C(=O)O)cc3)nc2)cc1 [Compound 100]
39 | 800 to 2500 | CC(C)(C)c1ccc(C(=O)N[C@@H](Cc2ccc(-c3ncc(-c4ccc5ccccc5c4)cn3)cc2)C(=O)O)cc1 [Compound 226]
40 | 800 to 2500 | CCCCCCCOc1ccc(-c2cnc(-c3ccc(C[C@H](NC(=O)c4ccc(C(C)(C)C)cc4)C(=O)O)cc3)cn2)cc1 [Compound 272]
41 | 800 to 2500 | CCCCCCCOc1ccc(-c2nnc(-c3ccc(C[C@H](NC(=O)c4ccc(C(C)(C)C)cc4)C(=O)O)cc3)s2)cc1 [Compound 83]
42 | 800 to 2500 | CCCCCCCOc1ccc(-c2cnc(-c3ccc(C[C@H](NC(=O)c4nnc(C(C)(C)C)s4)C(=O)O)cc3)nc2)cc1 [Compound 141]
43 | 5000 to 10000 | CCCCCCCOc1ccc(-n2cnc(-c3ccc(C[C@H](NC(=O)c4ccc(C(C)(C)C)cc4)C(=O)O)cc3)c2)cc1 [Compound 287, (S)-2-(4-(tert-butyl)benzamido)-3-(4-(1-(4-(heptyloxy)phenyl)-1H-imidazol-4-yl)phenyl)propanoic acid]
